The source made the active and inactive calls. The rule behind the calls is not given here.
What was measured:
Format in all cases: cell-based
[1] = molecular target: T1, Progesterone receptor (Homo sapiens) (UniProt P06401); experiment: Agonist activity at PR in human T47D cells using p-nitrophenyl phosphate as substrate assessed as induction of alkaline phosphatase activity at 125 nM incubated for 72 hrs followed by substrate addition measured after 24 hrs by alkaline phosphatase assay; details: time 96.0 hrs
T1 sequence (whole entry): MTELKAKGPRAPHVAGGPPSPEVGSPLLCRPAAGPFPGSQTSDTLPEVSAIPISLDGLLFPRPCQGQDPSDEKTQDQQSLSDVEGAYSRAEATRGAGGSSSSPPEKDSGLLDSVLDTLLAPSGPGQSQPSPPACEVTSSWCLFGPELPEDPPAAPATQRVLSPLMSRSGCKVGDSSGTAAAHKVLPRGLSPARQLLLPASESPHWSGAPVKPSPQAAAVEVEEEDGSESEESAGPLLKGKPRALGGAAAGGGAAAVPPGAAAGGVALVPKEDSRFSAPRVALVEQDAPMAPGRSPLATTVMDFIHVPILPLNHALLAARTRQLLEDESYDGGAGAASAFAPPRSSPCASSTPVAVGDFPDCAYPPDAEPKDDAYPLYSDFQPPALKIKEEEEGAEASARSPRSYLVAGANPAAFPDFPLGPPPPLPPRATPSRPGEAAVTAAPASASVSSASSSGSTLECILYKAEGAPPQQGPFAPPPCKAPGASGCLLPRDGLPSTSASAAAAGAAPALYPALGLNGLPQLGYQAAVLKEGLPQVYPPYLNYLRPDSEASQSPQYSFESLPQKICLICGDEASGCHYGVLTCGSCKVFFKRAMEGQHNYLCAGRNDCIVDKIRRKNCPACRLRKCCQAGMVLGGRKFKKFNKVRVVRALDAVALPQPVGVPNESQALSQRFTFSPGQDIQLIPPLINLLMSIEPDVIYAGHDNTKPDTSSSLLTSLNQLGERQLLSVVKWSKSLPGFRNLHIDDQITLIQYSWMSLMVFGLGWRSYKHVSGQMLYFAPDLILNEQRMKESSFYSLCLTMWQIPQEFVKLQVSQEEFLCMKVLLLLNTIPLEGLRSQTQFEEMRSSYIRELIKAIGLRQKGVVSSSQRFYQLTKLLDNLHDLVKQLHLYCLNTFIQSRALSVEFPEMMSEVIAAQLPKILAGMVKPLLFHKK

[2] = molecular target: T1, Progesterone receptor (Homo sapiens); experiment: Agonist activity at PR in human T47D cells using p-nitrophenyl phosphate as substrate assessed as induction of alkaline phosphatase activity at 1 nM incubated for 72 hrs followed by substrate addition measured after 24 hrs by alkaline phosphatase assay relative to control; details: filed as agonist, time 96.0 hrs
[3] = molecular target: T2, Progesterone receptor (Homo sapiens, UniProt P06401); experiment: Agonist activity at PR in human T47D cells using p-nitrophenyl phosphate as substrate assessed as induction of alkaline phosphatase activity incubated for 72 hrs followed by substrate addition measured after 24 hrs by alkaline phosphatase assay
T2 sequence (P06401 whole entry): T1 sequence (whole entry)

[4] = molecular target: T1, Progesterone receptor (Homo sapiens); experiment: Agonist activity at PR in human T47D cells using p-nitrophenyl phosphate as substrate assessed as fold increase in alkaline phosphatase activity at 25 nM incubated for 72 hrs followed by substrate addition measured after 24 hrs by alkaline phosphatase assay relative to control; details: filed as agonist, time 96.0 hrs

CC(=O)O[C@@]1(C(C)=O)CC[C@H]2[C@@H]3CCC4=CC(=O)CC[C@@H]4[C@H]3[C@@H](C)C[C@@]21C
Activity [1]: inactive
Activity [2]: 89.3%
EC50 [3]: > 125 nM

CC(=O)O[C@]1(C(C)=O)CC[C@H]2[C@@H]3CCC4=CC(=O)CC[C@@H]4[C@H]3[C@@H](C)C[C@@]21C [NORGESTOMET]
Activity [2]: 106%
EC50 [3]: 4.5 nM
fold change (FC) [4]: 2

CC(=O)[C@H]1CC[C@H]2[C@@H]3CCC4=CC(=O)CC[C@]4(C)[C@H]3CC[C@]12C
Activity [2]: 158%

From ChEMBL document CHEMBL5055652 (Bioorg Med Chem, 2021)
